# Laboratory results as given in PMC8204385 (Biophysical Journal, 2021).
# Values joined by “and” are separate entries in the source; they are usually repeats but may differ in a detail not shown here. Equal entries are not always repeated.
# Target: T1, human SHP-1 (Homo sapiens, UniProt P29350)
# T1 construct: 6xHis (N); made in house; host or cells: Escherichia coli BL21-CodonPlus (DE3)-RIPL
# Assay: SPR-based assay for tethered SHP-1 reactions on immobilised phosphopeptides, extended MPDPDE model fit
# Format: binding
# [1] = SPR, 37°C, MPDPDE fit, mean ± SE of N experiments
# T1 sequence (P29350 whole entry): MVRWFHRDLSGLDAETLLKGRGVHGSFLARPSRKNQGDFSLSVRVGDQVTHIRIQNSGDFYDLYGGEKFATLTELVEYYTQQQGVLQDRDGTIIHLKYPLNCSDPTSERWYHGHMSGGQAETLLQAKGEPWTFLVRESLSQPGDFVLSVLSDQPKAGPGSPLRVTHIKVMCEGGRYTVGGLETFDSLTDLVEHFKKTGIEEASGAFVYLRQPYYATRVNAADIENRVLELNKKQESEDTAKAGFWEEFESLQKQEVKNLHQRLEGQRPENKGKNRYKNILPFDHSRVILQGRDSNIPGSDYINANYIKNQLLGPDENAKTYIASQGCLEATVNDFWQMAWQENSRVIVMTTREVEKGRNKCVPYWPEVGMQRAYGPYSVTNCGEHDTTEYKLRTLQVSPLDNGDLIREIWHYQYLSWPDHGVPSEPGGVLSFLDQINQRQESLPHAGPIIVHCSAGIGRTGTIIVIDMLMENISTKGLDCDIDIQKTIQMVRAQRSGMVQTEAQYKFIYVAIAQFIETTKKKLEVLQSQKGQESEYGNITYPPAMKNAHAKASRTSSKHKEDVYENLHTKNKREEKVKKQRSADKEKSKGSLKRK
substance,measurement,setting,value
"biotin-QLRRRGKTNHYQTTVEKK SLTIYAQVQKPGPLQKKLD SFPA QDPCTTIYVAATEPVPESVQET NSITVY^∗ASVTLPES [SLAM, N-terminally biotinylated singly phosphorylated peptide of the cytoplasmic tail of SLAM, 77 aa]",molecular reach contributed by the peptide tail (LPD-1 or LSLAM),"37°C, ((L^2 − LSHP-1^2)/2)^1/2 with LSHP-1 = 13.0 nm",20.1 nm and 20 nm
same,kon,"SPR Biacore T200, 37°C, 10 μL/min, SHP-1 injected 45 s over biotinylated phosphopeptide on streptavidin CM5 chip, HEPES pH 7.4, MPDPDE fit, mean ± SE of N experiments",20000 ± 10000 M⁻¹ s⁻¹
same,"allosteric activation of SHP-1, ratio kcat(tethered)/kcat(solution)","SPR, 37°C",6.2 fold
same,Kd,"SPR, 37°C, KD = koff/kon, mean ± SE of N experiments",130 ± 40 µM
same,"L, molecular reach of the reaction","SPR, 37°C, L = (σ*)^−1/3 from averaged σ*, ± SE",31.2 ± 1.2 nm
same,kcat(solution),[1],5800 ± 1000 M⁻¹ s⁻¹
same,kcat(tethered),[1],36000 ± 3000 M⁻¹ s⁻¹
same,koff,[1],1.7 ± 0.2 s⁻¹
same,σ* (local concentration),[1],55 ± 6 µM
